Values of other authors, collected in patent US20240293300A1, “SKIN PENETRATION COSMETIC MATERIAL, AND SKIN PENETRATION COSMETIC MATERIAL PRODUCTION METHOD” (SHISEIDO COMPANY, LTD., priority 2021, published 2024).
Where a SMILES comes first, the peptide text is derived from it.

Conditions: 1-octanol/water partition coefficient

| Molecule | Log P |
| --- | --- |
| Cc1cc(C)nc(-n2nc(C)cc2C)n1.Cl [compound a, 2-(3,5-dimethylpyrazol-1-yl)-4,6-dimethyl pyrimidine hydrochloride] | 1.36 |
| N[C@@H](CCC(=O)O)C(=O)O [glutamic acid] | −3.7 |
| NCC(=O)NCC(=O)O [glycylglycine] (H-Gly-Gly-OH) | −2.3 |
| piperidine propionic acid | −2.06 |
